{"source": "patent US20230399341A1", "about": "“7-PHENYL SUBSTITUTED 2-AMINOQUINAZOLINE INHIBITORS OF HPK1” (MERCK SHARP & DOHME LLC, priority 2020, published 2023)", "biological_target": "T1, Human HPK1, catalytic domain (Homo sapiens, UniProt Q92918)", "T1 sequence (Q92918 1-346)": "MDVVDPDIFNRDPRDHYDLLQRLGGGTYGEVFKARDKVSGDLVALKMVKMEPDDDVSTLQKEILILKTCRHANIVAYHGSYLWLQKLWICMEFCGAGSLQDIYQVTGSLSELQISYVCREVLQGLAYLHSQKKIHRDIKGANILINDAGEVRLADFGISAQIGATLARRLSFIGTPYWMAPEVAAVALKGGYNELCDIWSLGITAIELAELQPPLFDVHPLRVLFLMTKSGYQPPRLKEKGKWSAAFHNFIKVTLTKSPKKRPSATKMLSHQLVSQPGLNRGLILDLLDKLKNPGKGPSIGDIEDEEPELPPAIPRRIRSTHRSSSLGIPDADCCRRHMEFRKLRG", "assay": "HPK1-SLP76 TR-FRET Assay", "type": "biochemical", "details": "75 pM HPK1, ATP 10 uM, SLP76 10 nM, 30 min pre-incubation, 60 min reaction", "data": [{"compound": "COc1cc2c(cc1Nc1ncc3c(N)c(F)c(-c4cnc5c(c4C)NCCO5)c(Cl)c3n1)CN(C)CC2(C)C", "note": "[Compound 2-104, 8-chloro-6-fluoro-N2-(6-methoxy-2,4,4-trimethyl-1,2,3,4-tetrahydroisoquinolin-7-yl)-7-(8-methyl-2,3-dihydro-1H-pyrido[2,3-b][1,4]oxazin-7-yl)quinazoline-2,5-diamine]", "values": [{"measurement": "IC50", "result": 0.795, "unit": "nM"}]}, {"compound": "Cc1c(-c2c(F)c(N)c3cnc(Nc4cc5c(cc4F)CCN(C)C5)nc3c2Cl)cnc2c1NCCO2", "note": "[Compound 2-185, (+ and −)-8-chloro-6-fluoro-N~2~-(6-fluoro-2-methyl-1,2,3,4-tetrahydroisoquinolin-7-yl)-7-(8-methyl-2,3-dihydro-1H-pyrido[2,3-b][1,4]oxazin-7-yl)quinazoline-2,5-diamine]", "values": [{"measurement": "IC50", "result": 0.0303, "unit": "nM"}]}, {"compound": "COc1cc2c(cc1Nc1ncc3ccc(-c4ccccc4-c4ccnn4C)cc3n1)CN(C)CC2", "note": "[Compound 1-109, N-(6-methoxy-2-methyl-1,2,3,4-tetrahydroisoquinolin-7-yl)-7-[2-(1-methyl-1H-pyrazol-5-yl)phenyl]quinazolin-2-amine]", "values": [{"measurement": "IC50", "result": 0.812, "unit": "nM"}]}, {"compound": "COc1cc2c(cc1Nc1ncc3ccc(-c4cnc5c(c4C)NCCO5)cc3n1)CN(C)CC2", "note": "[Compound 1-4, N-(6-methoxy-2-methyl-1,2,3,4-tetrahydroisoquinolin-7-yl)-7-(8-methyl-2,3-dihydro-1H-pyrido[2,3-b][1,4]oxazin-7-yl)quinazolin-2-amine]", "values": [{"measurement": "IC50", "result": 1.51, "unit": "nM"}]}, {"compound": "COc1cc2c(cc1Nc1ncc3ccc(-c4cc(S(=O)(=O)N5CCCC5)ccc4C)cc3n1)CNCC2", "note": "[Compound 1-78, N-(6-methoxy-1,2,3,4-tetrahydroisoquinolin-7-yl)-7-{2-methyl-5-[(pyrrolidin-1-yl)sulfonyl]phenyl}quinazo-lin-2-amine]", "values": [{"measurement": "IC50", "result": 353, "unit": "nM"}]}, {"compound": "CC(=O)NC1CCc2cc(Nc3ncc4c(N)c(F)c(-c5cnc6c(c5C)NCCO6)cc4n3)ccc21", "note": "(single isomer, unassigned) [Compound 2-10, (S or R)—N-(5-((5-amino-6-fluoro-7-(8-methyl-2,3-dihydro-1H-pyrido[2,3-b][1,4]oxazin-7-yl)quinazolin-2-yl)amino)-2,3-dihydro-1H-inden-1-yl)acetamide]", "values": [{"measurement": "IC50", "result": 0.125, "unit": "nM"}]}, {"compound": "COc1cc2c(cc1Nc1ncc3ccc(-c4cccc(S(=O)(=O)N5CCOCC5)c4)cc3n1)CNCC2", "note": "[Compound 1-77, N-(6-methoxy-1,2,3,4-tetrahydroisoquinolin-7-yl)-7-{3-[(morpholin-4-yl)sulfonyl]phenyl}quinazo-lin-2-amine]", "values": [{"measurement": "IC50", "result": 24.7, "unit": "nM"}]}, {"compound": "COc1cc2c(cc1Nc1ncc3ccc(NCc4noc(C)n4)cc3n1)CN(C)CC2", "note": "[Compound 3-52, N~2~-(6-methoxy-2-methyl-1,2,3,4-tetrahydroisoquinolin-7-yl)-N~7~-[(5-methyl-1,2,4-oxadiazol-3-yl)methyl]quinaz-oline-2,7-diamine]", "values": [{"measurement": "IC50", "result": 97.9, "unit": "nM"}]}, {"compound": "COc1cc2c(cc1Nc1ncc3ccc(-c4cccc(N)c4)cc3n1)CNCC2", "note": "[Compound 1-58, 7-(3-aminophenyl)-N-(6-methoxy-1,2,3,4-tetrahydroisoquinolin-7-yl)quinazolin-2-amine]", "values": [{"measurement": "IC50", "result": 76.2, "unit": "nM"}]}, {"compound": "COc1cc2c(cc1Nc1ncc3c(N)c(F)c(-c4cnc5c(c4C)NCCO5)c(Cl)c3n1)CN(C)CC2", "note": "(single isomer, unassigned) [Compound 2-93, (+ or −)-8-chloro-6-fluoro-N~2~-(6-methoxy-2-methyl-1,2,3,4-tetrahydroisoquinolin-7-yl)-7-(8-methyl-2,3-dihydro-1H-pyrido[2,3-b][1,4]oxazin-7-yl)quinazoline-2,5-diamine]", "values": [{"measurement": "IC50", "result": 0.0213, "unit": "nM"}]}, {"compound": "COc1cc2c(cc1Nc1ncc3ccc(-c4cccc(C(=O)N5CCCC5)c4)cc3n1)CNCC2", "note": "[Compound 1-86, (3-{2-[(6-methoxy-1,2,3,4-tetrahydroisoquinolin-7-yl)amino]quinazolin-7-yl}phenyl)(pyrrolidin-1-yl)methanone]", "values": [{"measurement": "IC50", "result": 44.1, "unit": "nM"}]}, {"compound": "Cc1c(-c2c(F)c(N)c3cnc(Nc4ccc5c(c4)CN(C)CC54CC4)nc3c2Cl)cnc2c1NCCO2", "note": "(single isomer, unassigned) [Compound 2-108, (+ or −)-8-chloro-6-fluoro-N2-(2′-methyl-2′,3′-dihydro-1′H-spiro[cyclopropane-1,4′-isoquinolin]-7′-yl)-7-(8-methyl-2,3-dihydro-1H-pyrido[2,3-b][1,4]oxazin-7-yl)quinazoline-2,5-diamine]", "values": [{"measurement": "IC50", "result": 0.0134, "unit": "nM"}]}, {"compound": "CC(=O)N1CCCc2cc(Nc3ncc4c(N)c(F)c(-c5cnc6c(c5C)NCCO6)cc4n3)ccc21", "note": "[Compound 2-7, 1-[6-{[5-amino-6-fluoro-7-(8-methyl-2,3-dihydro-1H-pyrido[2,3-b][1,4]oxazin-7-yl)quinazolin-2-yl]amino}-3,4-dihydroquinolin-1(2H)-yl]ethan-1-one]", "values": [{"measurement": "IC50", "result": 0.112, "unit": "nM"}]}, {"compound": "COc1cc2c(cc1Nc1ncc3ccc(-c4cnc5c(C#N)cnn5c4)cc3n1)CN(C)CC2", "note": "[Compound 1-22, 6-{2-[(6-methoxy-2-methyl-1,2,3,4-tetrahydroisoquinolin-7-yl)amino]quinazolin-7-yl}pyrazolo[1,5-a]pyrimidine-3-carbonitrile]", "values": [{"measurement": "IC50", "result": 735, "unit": "nM"}]}, {"compound": "Cc1c(-c2c(F)c(N)c3cnc(Nc4ccc(CS(C)(=O)=O)cc4)nc3c2Cl)cnc2c1NCCO2", "note": "[Compound 2-91, (+ or −)-8-chloro-6-fluoro-7-(8-methyl-2,3-dihydro-1H-pyrido[2,3-b][1,4]oxazin-7-yl)-N~2~- {4-[(methylsulfonyl)methyl]phenyl}quinazoline-2,5-diamine]", "values": [{"measurement": "IC50", "result": 1.32, "unit": "nM"}]}, {"compound": "COc1cc2c(cc1Nc1ncc3ccc(Nc4ccc5c(c4)N(C(C)=O)CC5)cc3n1)CN(C)CC2", "note": "[Compound 3-32, 1-[6-({2-[(6-methoxy-2-methyl-1,2,3,4-tetrahydroisoquinolin-7-yl)amino]quinazolin-7-yl}-amino)-2,3-dihydro-1H-indol-1-yl]ethan-1-one]", "values": [{"measurement": "IC50", "result": 57.1, "unit": "nM"}]}, {"compound": "COc1cc(CS(C)(=O)=O)ccc1Nc1ncc2c(N)c(F)c(-c3cnc4c(c3C)NCCO4)c(Cl)c2n1", "note": "(single isomer, unassigned) [Compound 2-101, (+ or −)-8-chloro-6-fluoro-N~2~-{2-methoxy-4-[(methylsulfony])methyl] phenyl}-7-(8-methyl-2,3-dihydro-1H-pyrido[2,3-b][1,4]oxazin-7-yl)quinazoline-2,5-diamine]", "values": [{"measurement": "IC50", "result": 0.121, "unit": "nM"}]}, {"compound": "CNS(=O)(=O)c1cccc(Nc2ncc3c(N)c(F)c(-c4cnc5c(c4C)NCCO5)cc3n2)c1", "note": "[Compound 2-34]", "values": [{"measurement": "IC50", "result": 0.118, "unit": "nM"}]}, {"compound": "Cc1c(-c2cc3nc(Nc4ccc(CS(=O)(=O)C(C)C)cc4)ncc3c(N)c2F)cnc2c1NCCO2", "note": "[Compound 2-157, 6-fluoro-7-(8-methyl-2,3-dihydro-1H-pyrido[2,3-b][1,4]oxazin-7-yl)-N~2~- (4-{[(propan-2-yl)sulfonyl]methyl}phenyl) quinazoline-2,5-diamine]", "values": [{"measurement": "IC50", "result": 0.0689, "unit": "nM"}]}, {"compound": "Cc1c(-c2cc3nc(Nc4ccc(CC(=O)N(C)C)cc4)ncc3cc2F)cnc2c1NCCO2", "note": "[Compound 1-132, 2-(4-{[6-fluoro-7-(8-methyl-2,3-dihydro-1H-pyrido[2,3-b][1,4]oxazin-7-yl)quinazolin-2-yl]amino}phenyl)-N,N-dimethylacetamide]", "values": [{"measurement": "IC50", "result": 0.132, "unit": "nM"}]}, {"compound": "Cc1c(-c2cc3nc(Nc4ccc(C(C)S(C)(=O)=O)cc4)ncc3c(N)c2F)cnc2c1NCCO2", "note": "(single isomer, unassigned) [Compound 2-62, (R or S)-6-fluoro-7-(8-methyl-2,3-dihydro-1H-pyrido[2,3-b][1,4]oxazin-7-yl)-N˜2˜-{4-[1-(methylsulfonyl)ethyl]phenyl}quinazoline-2,5-diamine]", "values": [{"measurement": "IC50", "result": 0.0612, "unit": "nM"}]}, {"compound": "COc1ccc(CC#N)cc1Nc1ncc2c(N)c(F)c(-c3cnc4c(c3C)NCCO4)cc2n1", "note": "[Compound 2-5, (3-{[5-amino-6-fluoro-7-(8-methyl-2,3-dihydro-1H-pyrido[2,3-b][1,4]oxazin-7-yl)quinazolin-2-yl]amino}-4-methoxyphenyl)acetonitrile]", "values": [{"measurement": "IC50", "result": 270, "unit": "nM"}]}, {"compound": "COc1cc2c(cc1Nc1ncc3c(N)c(F)c(-c4cnc5c(c4C)NCCO5)c(Cl)c3n1)CN(C)CC2", "note": "[Compound 2-94, (+ or −)-8-chloro-6-fluoro-N~2~-(6-methoxy-2-methyl-1,2,3,4-tetrahydroisoquinolin-7-yl)-7-(8-methyl-2,3-dihydro-1H-pyrido[2,3-b][1,4]oxazin-7-yl)quinazoline-2,5-diamine]", "values": [{"measurement": "IC50", "result": 5.77, "unit": "nM"}]}, {"compound": "CNC(=O)c1ccc(Nc2ncc3c(N)c(F)c(-c4c(Cl)nc5c(c4C)NCCO5)c(Cl)c3n2)c(OC)c1", "note": "[Compound 2-98, (+ or −)-4-{[5-amino-8-chloro-7-(6-chloro-8-methyl-2,3-dihydro-1H-pyrido[2,3-b][1,4]oxazin-7-yl)-6-fluoroquinazolin-2-yl]amino}-3-methoxy-N-methylbenzamide]", "values": [{"measurement": "IC50", "result": 6.73, "unit": "nM"}]}, {"compound": "CNC(=O)Cc1ccc(Nc2ncc3cc(F)c(-c4cnc5c(c4C)NCCO5)cc3n2)cc1", "note": "[Compound 1-130, 2-(4-{[6-fluoro-7-(8-methyl-2,3-dihydro-1H-pyrido[2,3-b][1,4]oxazin-7-yl)quinazolin-2-yl]amino}phenyl)-N-methylacetamide]", "values": [{"measurement": "IC50", "result": 0.0726, "unit": "nM"}]}, {"compound": "COc1cc2c(cc1Nc1ncc3ccc(-c4ccc5c(c4)CCCO5)cc3n1)CNCC2", "note": "[Compound 1-75, 7-(3,4-dihydro-2H-1-benzopyran-6-yl)-N-(6-methoxy-1,2,3,4-tetrahydroisoquinolin-7-yl)quinazolin-2-amine]", "values": [{"measurement": "IC50", "result": 91.6, "unit": "nM"}]}, {"compound": "COc1cc2c(cc1Nc1ncc3ccc(-c4cccc(S(=O)(=O)N5CCCCC5)c4)cc3n1)CNCC2", "note": "[Compound 1-82, N-(6-methoxy-1,2,3,4-tetrahydroisoquinolin-7-yl)-7-{3-[(piperidin-1-yl)sulfonyl]phenyl}quinazo-line-2-amine]", "values": [{"measurement": "IC50", "result": 15.2, "unit": "nM"}]}, {"compound": "COc1cc(S(N)(=O)=O)ccc1Nc1ncc2c(N)c(F)c(-c3cnc4c(c3C)NCCO4)cc2n1", "note": "[Compound 2-6, 4-{[5-amino-6-fluoro-7-(8-methyl-2,3-dihydro-1H-pyrido[2,3-b][1,4]oxazin-7-yl)quinazolin-2-yl]amino}-3-methoxybenzene-1-sulfonamide]", "values": [{"measurement": "IC50", "result": 48.1, "unit": "nM"}]}]}
